Here are results for twelve compounds from patent US20100048555A1, “IMIDAZOTHIAZOLE DERIVATIVES AS MARK INHIBITORS” (priority 2006, published 2010).

pIC50: −log10 of the molar value.

The target of the first assay is T1, MARK3 (Homo sapiens, UniProt P27448).
T1 construct: purchased University of Dundee
T1 sequence (P27448 whole entry, species assumed): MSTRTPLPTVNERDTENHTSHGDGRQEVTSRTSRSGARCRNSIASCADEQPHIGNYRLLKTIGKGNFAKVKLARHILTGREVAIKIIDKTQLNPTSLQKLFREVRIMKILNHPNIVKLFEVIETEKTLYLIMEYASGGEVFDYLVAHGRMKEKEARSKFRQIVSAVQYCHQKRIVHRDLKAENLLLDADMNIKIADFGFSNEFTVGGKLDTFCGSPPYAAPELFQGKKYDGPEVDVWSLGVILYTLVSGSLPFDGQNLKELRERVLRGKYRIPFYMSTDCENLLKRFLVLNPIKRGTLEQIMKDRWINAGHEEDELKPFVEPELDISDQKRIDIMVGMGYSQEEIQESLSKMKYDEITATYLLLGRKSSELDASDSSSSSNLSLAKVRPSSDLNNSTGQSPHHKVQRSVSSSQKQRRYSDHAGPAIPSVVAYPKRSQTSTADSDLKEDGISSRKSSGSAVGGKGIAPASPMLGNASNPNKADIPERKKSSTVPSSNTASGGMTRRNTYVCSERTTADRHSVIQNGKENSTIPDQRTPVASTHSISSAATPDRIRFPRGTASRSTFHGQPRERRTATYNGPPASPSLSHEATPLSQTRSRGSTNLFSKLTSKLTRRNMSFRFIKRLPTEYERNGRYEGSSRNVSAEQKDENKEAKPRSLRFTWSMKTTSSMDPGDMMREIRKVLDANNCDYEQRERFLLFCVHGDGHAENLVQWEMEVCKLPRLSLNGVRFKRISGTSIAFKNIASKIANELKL
As to the kind of experiment: MARK 3 Assay (HTRF, Cdc25C biotinylated peptide substrate). In kind it is biochemical. The following applies: recombinant MARK3 enzyme, 10 μM ATP, 1 μM peptide substrate. The protocol: MARK3 activity was assayed in vitro using a Cdc25C biotinylated peptide substrate (Cell Signalling Technologies). The phosphopeptide product was quantitated using a Homogenous Time-Resolved Fluorescence (HTRF) assay system (Park et al., 1999, Anal. Biochem. 269:94-104). The reaction mixture contained 50 mM HEPES/Tris-HCl, pH 7.4; 10 mM NaCl, 5 mM MgCl2, 0.2 mM NaVO4, 5 mM β-glycerol phosphate, 0.1% Tween-20, 2 mM dithiothreitol, 0.1% BSA, 10 μM ATP, 1 μM peptide substrate, and 10 nM recombinant MARK3 enzyme (University of Dundee) in a final volume of 12 μl. The buffer additionally contained protease inhibitor cocktail (Roche EDTA-free, 1 tab per 50 ml). The kinase reaction was incubated for 2 hours at 25° C., and then terminated with 3 μl Stop/Detection Buffer (50 mM HEPES, pH 7.0, 16.6 mM EDTA, 0.5M KF, 0.1% Tween-20, 0.1% BSA, 2 μg/ml SLX^ent 665 (CISBIO), and 2 μg/ml Eu^3+ cryptate label antibody (CISBIO)). The reaction was allowed to equilibrate overnight at 0° C., and relative fluorescent units were read on an HTRF enabled plate reader (e.g. TECAN GENios Pro). Inhibitor compounds were assayed in the reaction described above to determine compound IC50s. Aliquots of compound dissolved in DMSO were added to the reaction wells in a third-log dilution series covering a range of 1 nM to 10 μM. Relative phospho substrate formation, read as HTRF fluorescence units, was measured over the range of compound concentrations and a titration curve generated.
(TR-FRET usually uses a lanthanide donor and a delayed reading to cut background.)
Turning to `O=C(Nc1ncn2c(C(F)(F)F)csc12)c1ccc(CN2CCCCC2)cc1` [Example 17, 4-(Piperidin-1-ylmethyl)-N-[3-(trifluoromethyl)imidazo[5,1-b][1,3]thiazol-7-yl]benzamide], the pIC50 is 6.30 to 7.00. With `O=C(Nc1ncn2c(C(F)(F)F)csc12)c1ccc(F)cc1` [Example 1, 4-Fluoro-N-[3-(trifluoromethyl)imidazo[5,1-b][1,3]thiazol-7-yl]benzamide], the negative logarithm of the IC50 (pIC50) was 6.30 to 7.00. Same read-out and setting: for `O=C(Nc1ncn2c(C(F)(F)F)csc12)c1ccc(OCCN2CCCCC2)cc1` [Example 12, 4-(2-Piperidin-1-ylethoxy)-N-[3-(trifluoromethyl)imidazo[5,1-b][1,3]thiazol-7-yl]benzamide] the value was > 7.00; for `O=C(Nc1ncn2c(C(F)(F)F)csc12)c1ccc(N2CCOCC2)cc1` [Example 9], 6.30 to 7.00; for `CN1CCN(Cc2ccc(C(=O)Nc3ncn4c(C(F)(F)F)csc34)cc2)CC1` [Example 18, 4-[(4-methylpiperazin-1-yl)methyl]-N-[3-(trifluoromethyl)imidazo[5,1-b][1,3]thiazol-7-yl]benzamide], 6.30 to 7.00. Same read-out and setting: for `CN1CCN(c2ccc(C(=O)Nc3ncn4c(C(F)(F)F)csc34)cc2)CC1` [Example 8, 4-(4-Methylpiperazin-1-yl)-N-[3-(trifluoromethyl)imidazo[5,1-b][1,3]thiazol-7-yl]benzamide] the value was > 7.00; for `O=C(Nc1ncn2c(C(F)(F)F)csc12)c1ccc(CO)cc1` [Example 14, 4-(Hydroxymethyl)-N-[3-(trifluoromethyl)imidazo[5,1-b][1,3]thiazol-7-yl]benzamide], 6.30 to 7.00.

For the compound `O=C(Nc1ncn2c(C(F)(F)F)csc12)c1ccc(CN2CCOCC2)cc1` [Example 16, 4-(Morpholin-4-ylmethyl)-N-[3-(trifluoromethyl)imidazo[5,1-b][1,3]thiazol-7-yl]benzamide], the pIC50 is 6.30 to 7.00. Still for that read-out and setting: for `O=C(Nc1ncn2c(C(F)(F)F)csc12)c1ccc(Cl)cc1` [Example 7, 4-Chloro-N-[3-(trifluoromethyl)imidazo[5,1-b][1,3]thiazol-7-yl]benzamide] the value was 6.30 to 7.00.

Staying with this assay, now noted: recombinant MARK3 enzyme, 10 μM ATP, range given with mixed units (500 nM to 1 μM), units kept in the value.
For `O=C(Nc1ncn2c(C(F)(F)F)csc12)c1cccc(OCCN2CCCCC2)c1` [Example 13, 3-(2-Piperidin-1-ylethoxy)-N-[3-(trifluoromethyl)imidazo[5,1-b][1,3]thiazol-7-yl]benzamide], the negative logarithm of the IC50 (pIC50) is 6.00 to 6.30.

Consider `O=C(Nc1ncn2c(C(F)(F)F)csc12)c1ccc(O)cc1` [Example 2, 4-Hydroxy-N-[3-(trifluoromethyl)imidazo[5,1-b][1,3]thiazol-7-yl]benzamide], for which the negative logarithm of the IC50 (pIC50) is 6.00 to 6.30. With `O=C(Nc1ncn2c(C(F)(F)F)csc12)c1ccc(CO)cc1` [Example 14, 4-(Hydroxymethyl)-N-[3-(trifluoromethyl)imidazo[5,1-b][1,3]thiazol-7-yl]benzamide], the pIC50 is 6.00 to 6.30. On the same count and under the same terms, for `CN1CCN(c2ccc(C(=O)Nc3ncn4c(C(F)(F)F)csc34)cn2)CC1` [Example 19, 6-(4-methylpiperazin-1-yl)-N-[3-(trifluoromethyl)imidazo[5,1-b][1,3]thiazol-7-yl]nicotinamide] the value was 6.00 to 6.30.

As a reminder, the pIC50 is the IC50 on a negative log10 scale, so that one unit is a factor of ten.
